The text below walks through data of PMC7044277 (Nature Communications, 2020).

What is called EC50 is the concentration giving half of the maximal effect. For orientation: Emax means the greatest response seen or fitted, relative to the assay's reference.

Structures are written as SMILES. “And” between values parts separate entries of the source, which are not always exact repeats. Equal entries are not always repeated. “Also recorded” adds a separate entry of the source. Where two headings read alike, the source gives them in different places.

The target in test [1] is T1, DRD2 F1103.28A (Homo sapiens, UniProt P14416, F110A). The test is described as follows: Gαi/o-mediated cAMP inhibition (GloSensor), mutant. In kind it is cell-based. Also noted: expressed in transfected cells; host or cells: HEK293T (ATCC CRL-11268).
Test [2] addresses T2, DRD3 F1063.28A (Homo sapiens, UniProt P35462, F106A). In words: biochemical. The class given is binding.
Test [3] has as its target T3, DRD2 (D2 long receptor) (Homo sapiens, UniProt P14416). The test is described as follows: Gαi/o-mediated cAMP inhibition (GloSensor split-luciferase cAMP reporter), HEK293T.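 On all read-outs here: compounds applied 15 min at room temperature, then luciferin plus 400 nM isoproterenol to raise cAMP through endogenous β2-adrenergic receptors, luminescence read 15 min later.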 The class given is cell-based. Particulars: for response, Fig_S11d dose-response source data: replicate values; for Emax: HEK-293T, read-out: Emax relative to quinpirole response.
The target of test [4] is T1, DRD2 F1103.28A. The class given is binding. Set-up: expressed in transfected cells; host or cells: HEK293T (ATCC CRL-11268).
The target in test [5] is T4, DRD4 (D4.4 variant) (Homo sapiens, UniProt P21917).
T4 sequence (P21917 1-419): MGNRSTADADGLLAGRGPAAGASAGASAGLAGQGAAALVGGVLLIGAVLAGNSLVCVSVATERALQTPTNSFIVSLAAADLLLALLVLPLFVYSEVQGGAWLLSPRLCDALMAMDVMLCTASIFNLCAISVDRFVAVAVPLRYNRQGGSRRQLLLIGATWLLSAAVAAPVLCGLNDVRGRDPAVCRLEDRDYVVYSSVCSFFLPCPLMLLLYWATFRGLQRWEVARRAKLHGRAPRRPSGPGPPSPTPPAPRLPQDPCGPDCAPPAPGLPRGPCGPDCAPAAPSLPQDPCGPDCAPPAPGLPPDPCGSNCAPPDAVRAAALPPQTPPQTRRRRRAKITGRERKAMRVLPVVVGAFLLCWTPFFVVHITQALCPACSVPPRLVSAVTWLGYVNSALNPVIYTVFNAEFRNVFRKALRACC
In words: β-arrestin2 recruitment (Tango). In kind it is cell-based. For orientation: Recruitment of arrestin is a read-out of receptor activation apart from second messengers.

Test [6] deals with T5, DRD3 (Homo sapiens, UniProt P35462). The test is described as follows: β-arrestin2 recruitment (Tango). In kind it is cell-based. The note with it: for Emax: read-out: Emax relative to quinpirole response.
Test [7] deals with T3, DRD2 (D2 long receptor). In words: β-arrestin2 recruitment (Tango), HTLA cells. In kind it is cell-based. The note with it: for response, Fig_S11e dose-response source data: replicate values; for Emax: HTLA, read-out: Emax relative to quinpirole response.
Test [8] has as its target DRD2 (D2 long receptor) wild-type (Homo sapiens, UniProt P14416). In words: Radioligand competition binding, [3H]-N-methylspiperone, HEK293T membranes. On the technique in general: Loss of bound radioactivity is the signal in a displacement assay; it reports binding, not function.
Test [9] addresses T6, DRD2 F1103.28L (Homo sapiens, UniProt P14416, F110L).
T6 construct: expressed in transfected cells; host or cells: HEK293T (ATCC CRL-11268)
In words: β-arrestin2 recruitment (Tango), mutant. In kind it is cell-based.

Test [10] has as its target T6, DRD2 F1103.28L. In words: Gαi/o-mediated cAMP inhibition (GloSensor), mutant. In kind it is cell-based.
The target of test [11] is T2, DRD3 F1063.28A. In words: cell-based. In kind it is cell-based.
Test [12] has as its target T7, DRD4 (D4.4 variant) wild-type (Homo sapiens, UniProt P21917).
T7 sequence (P21917 1-419): T4 sequence (P21917 1-419)
The test is described as follows: Radioligand competition binding, [3H]-N-methylspiperone.

The target in test [13] is T4, DRD4 (D4.4 variant). The test is described as follows: Gαi/o-mediated cAMP inhibition (GloSensor). The class given is cell-based.
Test [14] addresses DRD3 wild-type (Homo sapiens, UniProt P35462). In words: Radioligand competition binding, [3H]-N-methylspiperone.
The target in test [15] is T1, DRD2 F1103.28A. In words: β-arrestin2 recruitment (Tango), mutant. In kind it is cell-based. Also noted: expressed in transfected cells; host or cells: HEK293T (ATCC CRL-11268).
In test [16] the target is T5, DRD3. In words: Gαi/o-mediated cAMP inhibition (GloSensor). The class given is cell-based.
Test [17] concerns the target T8, DRD2 S1975.46G (Homo sapiens, UniProt P14416, S197G).
T8 construct: expressed in transfected cells; host or cells: HEK293T (ATCC CRL-11268)
The test is described as follows: Gαi/o-mediated cAMP inhibition (GloSensor), mutant. In kind it is cell-based. Particulars: DRD2 Ser197^5.46Gly; G-protein assay.

Test [18] concerns the target T1, DRD2 F1103.28A. The note with it: cited from earlier work.
Setting [19] is: read-out: Emax relative to quinpirole response.

T5 sequence (P35462 whole entry): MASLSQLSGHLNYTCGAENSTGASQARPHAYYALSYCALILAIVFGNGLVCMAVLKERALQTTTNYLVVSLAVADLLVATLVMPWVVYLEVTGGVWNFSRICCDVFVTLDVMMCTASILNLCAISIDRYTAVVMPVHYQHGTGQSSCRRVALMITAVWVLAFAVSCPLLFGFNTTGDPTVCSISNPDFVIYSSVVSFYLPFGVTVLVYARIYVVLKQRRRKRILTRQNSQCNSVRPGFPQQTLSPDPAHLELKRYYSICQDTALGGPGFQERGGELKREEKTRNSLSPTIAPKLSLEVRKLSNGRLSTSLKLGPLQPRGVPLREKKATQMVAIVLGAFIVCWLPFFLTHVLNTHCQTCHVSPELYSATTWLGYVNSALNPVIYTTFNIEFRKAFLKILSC
T2 sequence (P35462 whole entry F106A): as the sequence (P35462 whole entry) above, with F106A counted along it
T6 sequence (P14416 whole entry F110L): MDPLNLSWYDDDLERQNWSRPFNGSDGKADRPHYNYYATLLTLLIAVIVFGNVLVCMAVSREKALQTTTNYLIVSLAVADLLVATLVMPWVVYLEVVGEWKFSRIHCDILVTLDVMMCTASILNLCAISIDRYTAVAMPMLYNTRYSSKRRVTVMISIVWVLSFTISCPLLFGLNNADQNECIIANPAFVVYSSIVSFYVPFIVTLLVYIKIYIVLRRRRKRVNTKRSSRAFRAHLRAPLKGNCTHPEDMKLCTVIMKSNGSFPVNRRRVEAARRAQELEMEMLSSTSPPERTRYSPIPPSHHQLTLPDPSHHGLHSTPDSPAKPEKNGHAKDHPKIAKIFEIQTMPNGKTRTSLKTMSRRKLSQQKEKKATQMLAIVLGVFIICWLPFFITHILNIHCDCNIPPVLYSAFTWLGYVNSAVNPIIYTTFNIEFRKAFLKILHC
T3 sequence (P14416 whole entry): as the sequence (P14416 whole entry F110L) above, with L110F counted along it
T1 sequence (P14416 whole entry F110A): as the sequence (P14416 whole entry F110L) above, with L110A counted along it
Chain of DRD3 wild-type (P35462 whole entry): as the sequence (P35462 whole entry) above
Chain of DRD2 (D2 long receptor) wild-type (P14416 whole entry): as the sequence (P14416 whole entry F110L) above, with L110F counted along it
T8 sequence (P14416 whole entry S197G): as the sequence (P14416 whole entry F110L) above, with L110F, S197G counted along it

In the case of `CCOc1cccc2cc(C(C)NCC3(O)CCCCCCC3)oc12` (centres unmarked) [O4LE8], the EC50 is more than 10 µM in test [1]; 0.0251 ± 0.00415 µM in test [3] (DRD2, agonist, Gαi/o-mediated cAMP inhibition, read-out: EC50 ± SEM); 7.72 ± 3.42 µM in test [5] (DRD4, Tango, read-out: EC50 ± SEM); 2.57 ± 0.331 µM in test [6] (DRD3, Tango, read-out: EC50 ± SEM); 0.958 ± 0.554 µM in test [7] (DRD2, β-arrestin2 recruitment (Tango), read-out: EC50 ± SEM); 0.0832 µM in test [9]. The EC50 was 0.00514 ± 0.00134 µM in [10] (DRD2 F1103.28L (b138 head prints DRD2 F1063.28L)); more than 10 µM in test [11]; more than 10 µM in test [13] (DRD4, agonist, cAMP inhibition, read-out: EC50 ± SEM); more than 10 µM in test [15]. The Ki in test [2] is 0.209 µM; in test [4] (DRD2 F1103.28A, read-out: pKi ± SEM (converted)), 0.174 µM; in test [8] (DRD2, [3H]-methylspiperone (0.8-1.0 nM), read-out: Ki) it was 1.44 µM; in test [12] (DRD4, [3H]-methylspiperone (0.8-1.0 nM), read-out: Ki), 3.47 µM; in [14] (DRD3 wild-type, read-out: pKi ± SEM (converted)), 0.126 µM. Also, the “affinity decreased, mutant vs wild type” value in test [2] (DRD3 Phe106^3.28Ala vs wild-type DRD3) was 1.62 fold. For the same compound, the “response, Fig_S11d dose-response source data” value in test [3] (Log[Drug] -6.52) was 81.714; in test [3] (Log[Drug] -7) it was 60.3486 and 66.6804 and 72.7008 and 60.4684 and 68.6286 and 77.0139 and 66.1563 and 80.9789 and 74.7009; in test [3] (Log[Drug] -7.52), 64.1546 and 42.5815 and 54.9164 and 48.6839 and 50.89 and 54.6944 and 53.231 and 58.2356 and 61.6484; in test [3] (Log[Drug] -8) it was 30.3505 and 38.7582 and 38.4468 and 27.6925 and 25.4414 and 37.7886 and 33.6203 and 36.6384 and 38.4211; in test [3] (Log[Drug] -8.52), 18.8806 and 26.4753 and 29.6239 and 29.8085 and 24.7211 and 36.5506 and 30.7552 and 20.988 and 25.8907; in [3] (Log[Drug] -9), 10.6977 and 6.477 and 22.1503 and -4.7682 and 5.553 and 28.1427 and 15.0029 and 22.6689 and 22.3633. The “response, Fig_S11d dose-response source data” value in test [3] (Log[Drug] -9.52) was 13.483 and 14.7978 and 22.2541 and 0.3305 and -1.0989 and 21.5583 and 10.5969 and 17.6134 and 23.573; in [3] (Log[Drug] -10) it was 5.075 and 27.3403 and 11.8049 and -5.4661 and -6.0063 and 15.8293 and -4.1493 and 12.6598 and 11.3991; in test [3] (Log[Drug] -10.52), 26.6829 and 14.6767 and 28.6205 and 3.955 and -0.615 and 13.1617 and 5.592 and 6.484 and 18.0973; in test [3] (Log[Drug] -11), 14.0885 and 21.7351 and 14.8497 and 2.548 and 0.2179 and 18.1479 and 4.5736 and 10.5841 and 33.4421; in [3] (Log[Drug] -11.52), 14.3134 and 21.1815 and -2.3983 and 1.163 and 10.5955 and 20.3089 and -4.0602 and -1.4624 and 2.396; in [3] (Log[Drug] -12), -12.3977 and -4.8203 and -3.3671 and -5.6011 and 0.2067 and 18.6656 and 6.267 and -13.7 and 1.135. The Emax in test [3] (DRD2, cAMP inhibition) is 93.5%; in test [5] (read-out: Emax relative to quinpirole response, DRD4, Tango) it was 22.3%; in [6] (DRD3, Tango), 12.6%; in [7] (DRD2, Tango), 54%; in test [9] (setting [19]), 12.9%; in test [10] (read-out: Emax relative to quinpirole response, DRD2 F1103.28L) it was 79.4%. Besides, the “affinity increase (binding enhanced), mutant vs wild type” value in test [4] (DRD2 Phe110^3.28Ala vs wild-type DRD2) is given as 8.47 fold. Also, the “response, Fig_S11e dose-response source data” value is 25.1709 in test [7] (Log[Drug] -6.52); 14.6742 and 15.2038 and 14.2094 and 15.768 and 13.8247 and 10.963 and 9.8559 and 9.763 and 11.4407 in [7] (Log[Drug] -7); 7.064 and 7.803 and 7.822 and 6.018 and 6.959 and 8.6294 and 5.868 and 6.2292 and 7.2281 in [7] (Log[Drug] -7.52); 5.7468 and 5.978 and 6.62 and 5.455 and 5.722 and 6.021 and 5.454 and 5.678 and 6.204 in test [7] (Log[Drug] -8); 5.4648 and 5.687 and 6.826 and 4.883 and 5.2931 and 6.0726 and 5.125 and 5.623 and 6.271 in test [7] (Log[Drug] -8.52); 5.367 and 5.481 and 6.509 and 5.152 and 5.102 and 5.412 and 5.069 and 5.184 and 5.586 in test [7] (Log[Drug] -9). Further, the “response, Fig_S11e dose-response source data” value in [7] (Log[Drug] -9.52) was 5.23 and 5.307 and 5.645 and 4.9908 and 4.966 and 5.083 and 5.0713 and 4.923 and 5.288; in test [7] (Log[Drug] -10) it was 5.15 and 5.211 and 5.175 and 4.9 and 4.98 and 4.8838 and 4.832 and 4.97 and 4.906; in test [7] (Log[Drug] -10.52), 5.0534 and 4.953 and 5.08 and 4.774 (2×) and 4.9 and 4.962 and 4.816 and 4.832; in test [7] (Log[Drug] -11) it was 5.0347 and 4.933 and 5.013 and 4.706 and 4.819 and 4.763 and 4.774 (2×) and 4.732; in test [7] (Log[Drug] -11.52), 4.924 and 5.294 and 5.1115 and 4.785 and 5.303 and 4.761 and 4.741 and 4.765 and 4.928; in test [7] (Log[Drug] -12), 4.887 and 4.896 and 4.876 and 4.741 and 5.073 and 4.844 and 4.843 and 5.092 and 4.723.
With `CC(CCc1ccccc1[N+](=O)[O-])NCC1(O)CCCCC1` (centres unmarked) [O7LE6], the EC50 in test [3] was 0.00113 µM; in [16] it was 0.00196 µM; in [5] it was more than 10 µM; in test [6], 0.117 µM; in test [7], 0.00695 µM; in test [13] it was more than 10 µM. Besides, the Emax in [3] was 100%; in test [16] (setting [19]), 82.7%; in test [6] it was 88.5%; in [7], 85.3%. The “β-arrestin2 recruitment agonist activity” value in test [5] (DRD4, Tango) is “no DRD4 activity”. Also, the “agonism after serine to glycine substitution” value in [17] was “substantially diminished”. For the same compound, the Ki was 1.41 µM in test [8] (Ki), more than 10 µM in [12] (Ki) and 0.174 µM in [14]. Moreover, in test [13] (DRD4, cAMP inhibition), the “G protein agonist activity” value is “no DRD4 activity”.
As for `CNc1cc(OC)c(C(=O)NC2CCN(Cc3ccccc3)C2C)cc1Cl` (centres unmarked) [nemonapride], in test [18], the “effect of Phe110^3.28Ala mutation on binding” value was “did not enhance the binding; also recorded: didn’t enhance the binding”.
Consider `Cc1nc2n(c(=O)c1CCN1CCC(c3noc4cc(F)ccc34)CC1)CCCC2` [risperidone], for which, in [18] (previous published studies), the “effect of Phe110^3.28Ala mutation on binding” value is listed as “did not enhance the binding; also recorded: didn’t enhance the binding”.
